From article PMC9687610, “Adenosine-Mimicking Derivatives of 3-Aminopyrazine-2-Carboxamide: Towards Inhibitors of Prolyl-tRNA Synthetase with Antimycobacterial Activity” (Biomolecules, 2022)
In brackets after ≈: the same amount, converted by molar mass.

Experiments:
[1] = test system: Mycobacterium tuberculosis H37Ra ITM-M006710 (ATCC 9431); experiment: Microplate Alamar Blue Assay (MABA), Mtb H37Ra; assay type: cell-based; details: Middlebrook 7H9 broth pH 6.6, resazurin after 120 h; for MIC: Mycobacterium tuberculosis, 120 h, pH 6.6, MABA, read-out: Mtb H37Ra MIC
[2] = test system: Mycobacterium smegmatis DSM 43465 (ATCC 607); experiment: Microplate Alamar Blue Assay (MABA), M. smegmatis; assay type: cell-based; details: Mycolicibacterium smegmatis; MABA, resazurin after 48 h; read-out: M. smegmatis MIC
[3] = test system: M. aurum DSM 43999 (ATCC 23366); experiment: Microplate Alamar Blue Assay (MABA), M. aurum; assay type: cell-based; details: Mycolicibacterium aurum; MABA, resazurin after 72 h; read-out: M. aurum MIC
[4] = test system: Staphylococcus aureus subsp. aureus CCM 4223 (ATCC 29213); experiment: Antibacterial microdilution broth (EUCAST), SA; assay type: cell-based; details: Staphylococcus aureus; read after 24 h; read-out: SA MIC
[5] = test system: Staphylococcus aureus subsp. aureus methicillin-resistant (MRSA) CCM 4750 (ATCC 43300); experiment: Antibacterial microdilution broth (EUCAST), MRSA; assay type: cell-based; details: Staphylococcus aureus; read after 24 h; read-out: MRSA MIC
[6] = test system: Staphylococcus epidermidis CCM 4418 (ATCC 12228); experiment: Antibacterial microdilution broth (EUCAST), SE; assay type: cell-based; details: read after 24 h, read-out: SE MIC
[7] = test system: Enterococcus faecalis CCM 4224 (ATCC 29212); experiment: Antibacterial microdilution broth (EUCAST), EF; assay type: cell-based; details: Enterococcus faecalis; read after 24 h; read-out: EF MIC
[8] = test system: Escherichia coli CCM 3954 (ATCC 25922); experiment: Antibacterial microdilution broth (EUCAST), EC; assay type: cell-based; details: Escherichia coli; read after 24 h; read-out: EC MIC
[9] = test system: Acinetobacter baumannii DSM 30007 (ATCC 19606); experiment: Antibacterial microdilution broth (EUCAST), ACI; assay type: cell-based; details: Acinetobacter baumannii; read after 24 h; read-out: ACI MIC
[10] = test system: Pseudomonas aeruginosa CCM 3955 (ATCC 27853); experiment: Antibacterial microdilution broth (EUCAST), PA; assay type: cell-based; details: Pseudomonas aeruginosa; read after 24 h; read-out: PA MIC
[11] = test system: Candida albicans CCM 8320 (ATCC 24433); experiment: Antifungal microdilution broth (EUCAST), CA; assay type: cell-based; details: Candida albicans; read after 24 h; read-out: CA MIC
[12] = test system: Candida krusei CCM 8271 (ATCC 6258); experiment: Antifungal microdilution broth (EUCAST), CK; assay type: cell-based; details: Pichia kudriavzevii; read after 24 h; read-out: CK MIC
[13] = test system: Candida parapsilosis CCM 8260 (ATCC 22019); experiment: Antifungal microdilution broth (EUCAST), CP; assay type: cell-based; details: Lodderomyces parapsilosis; read after 24 h; read-out: CP MIC
[14] = test system: Candida tropicalis CCM 8264 (ATCC 750); experiment: Antifungal microdilution broth (EUCAST), CT; assay type: cell-based; details: Candida tropicalis; read after 24 h; read-out: CT MIC
[15] = test system: Aspergillus fumigatus ATCC 204305; experiment: Antifungal microdilution broth (EUCAST), AF; assay type: cell-based; details: Aspergillus fumigatus, ATCC204305; read after 24 h; read-out: AF MIC
[16] = test system: Aspergillus flavus CCM 8363; experiment: Antifungal microdilution broth (EUCAST), AFla; assay type: cell-based; details: Aspergillus flavus, CCM8363; read after 24 h; read-out: AFla MIC
[17] = test system: Lichtheimia corymbifera CCM 8077; experiment: Antifungal microdilution broth (EUCAST), LC; assay type: cell-based; details: Lichtheimia corymbifera, CCM8077; read after 24 h; read-out: LC MIC
[18] = test system: Trichophyton interdigitale CCM 8377 (ATCC 9533); experiment: Antifungal microdilution broth (EUCAST), TI; assay type: cell-based; details: Trichophyton interdigitale, 72 h, read-out: TI MIC
[19] = test system: HepG2 human hepatocellular carcinoma cells; experiment: In vitro HepG2 cytotoxicity (CellTiter 96); details: Homo sapiens, HepG2, 24 h, read-out: HepG2 IC50, 24 h incubation; * limit = highest evaluated concentration (precipitation in medium); ** over the 1000 µM limit
[20] = test system: Klebsiella pneumoniae CCM 4415 (ATCC 10031); experiment: Antibacterial microdilution broth (EUCAST), KP; details: read after 24 h
[21] = test system: Mycobacterium tuberculosis H37Rv CNCTC My 331/88 (ATCC 27294); experiment: MABA microdilution, Mtb H37Rv; assay type: cell-based; details: Mycobacterium tuberculosis; read-out: Mtb H37Rv MIC
Mtb laboratory ID IZAK = details: Laboratory ID IZAK, cited from earlier work; for Susceptibility: CLSI breakpoints 2020; for Minimum inhibitory concentration: tested and interpreted according to CLSI breakpoints in 2020
Mtb laboratory ID MATI = details: Laboratory ID MATI, cited from earlier work; for Susceptibility: CLSI breakpoints 2021; for Minimum inhibitory concentration: tested and interpreted according to CLSI breakpoints in 2021

SMILES | MIC [1] [µg/mL] | MIC [2] [µg/mL] | MIC [3] [µg/mL] | IC50 [19] [µM] | MIC [21] [µg/mL] | Susceptibility (Mtb laboratory ID IZAK) | Minimum inhibitory concentration (Mtb laboratory ID IZAK) [µg/mL] | Susceptibility (Mtb laboratory ID MATI) | Minimum inhibitory concentration (Mtb laboratory ID MATI) [µg/mL] | further results
O=c1[nH]c(-c2ccc(Br)cc2)nc2nccnc12 [Compound 43] | 31.2 (≈ 103 µM) | ≥ 500 | ≥ 500 | > 250 |  |  |  |  |  | MIC [4]: > 125 µM; MIC [5]: > 125 µM; MIC [6]: > 125 µM; MIC [7]: > 125 µM; MIC [8]: > 125 µM; MIC [9]: > 125 µM; MIC [10]: > 125 µM; MIC [11]: > 125 µM; MIC [12]: > 125 µM; MIC [13]: > 125 µM; MIC [14]: > 125 µM; MIC [15]: > 125 µM; MIC [16]: > 125 µM; MIC [17]: > 125 µM; MIC [18]: > 125 µM; melting point: 315.4 to 317.4 °C; KP MIC [20]: > 125 µM
CC[C@@H](CO)NCCN[C@@H](CC)CO [EMB, ethambutol] | 0.5 (≈ 2.45 µM) |  |  |  | 0.39 (≈ 1.91 µM) | sensitive | 0.5 (≈ 2.45 µM) | sensitive | 0.5 (≈ 2.45 µM) | 
NNC(=O)c1ccncc1 [INH, isoniazid] | 0.25 (≈ 1.82 µM) | 15.6 (≈ 114 µM) | 3.91 (≈ 28.5 µM) | > 1000 | 0.2 (≈ 1.46 µM) |  |  | resistant |  | Mtb H37Ra MIC ([1]; MABA): 0.25 to 0.5 µg/mL
NC(=O)c1cnccn1 [PZA, pyrazinamide] |  |  |  |  |  | resistant | > 16 | resistant | > 128 | 
CO[C@H]1/C=C/O[C@@]2(C)Oc3c(C)c(O)c4c(O)c(c(/C=N/N5CCN(C)CC5)c(O)c4c3C2=O)NC(=O)/C(C)=C\C=C\[C@H](C)[C@H](O)[C@@H](C)[C@@H](O)[C@@H](C)[C@H](OC(C)=O)[C@@H]1C [RIF, rifampicin] | 0.003 (≈ 0.00365 µM) | 12.5 (≈ 15.2 µM) | 0.39 (≈ 0.474 µM) | > 500 |  | resistant | > 8 | resistant | > 8 | 
[H]/N=C(/N)N[C@H]1[C@H](O)[C@@H](O)[C@H](O[C@@H]2O[C@@H](C)[C@](O)(C=O)[C@H]2O[C@@H]2O[C@@H](CO)[C@H](O)[C@@H](O)[C@@H]2NC)[C@@H](N/C(N)=N\[H])[C@@H]1O [STM, streptomycin] | 0.5 (≈ 0.86 µM) |  |  |  |  | resistant | 4 (≈ 6.88 µM) | resistant | > 16 | 
